Data published in patent US20220281860A1, “COMPOUNDS AND METHODS OF TREATING RNA-MEDIATED DISEASES” (Arrakis Therapeutics, Inc., priority 2016, published 2022).

What was measured:
[1] = tested on: RNA3WJ_1.0.0_5IB_3FAM (cis 3WJ with one unpaired nucleotide); assay: Thermal shift binding assay; settings: RNA3WJ_1.0.0_5IB_3FAM; for Melting temp [° C.] + cmpd / Temp. Shift [° C.]: 1 μM RNA, 8 μM compound, 1% DMSO, 10 mM CacoK pH 7.2, 30 mM NaCl
Excerpt: (§1) Purpose: Test binding of compounds for RNA three way junction (for example, a construct of 38 nt). Thermal shift assay based on established fluorescence quenching assay utilizing FAM as fluorescence tag and Iowa Black as quencher. Tags were attached at the 3′ and 5′ end, respectively. Stable formation of 3WJ upon compound binding would lead to quenching of the FAM fluorescence due to close proximity of the Iowa Black tag. Thermal unfolding leads to increase of fluorescence emission. Assay readout: FAM (465-510 nm) Thermal Shift.
(§2) Assay sample buffer used: 10 mM CacoK pH 7.2, 30 mM NaCl. Buffer preparation in Dnase/Rnase Free distilled water (Gibco Life Technologies).
(§3) Tool compounds provided as dry powder are prepared as 50 mM stock solution in 100% d6-DMSO. Stock solutions of 50 mM concentration in d6-DMSO are stored at RT.
(§4) Sample plate: Roche, Light Cycler480 Multiwell Plate96, white, REF 04729692001. (Dilution plate: Greiner REF 781101, PS-Microplate, 384 well, clear). Thermal Shift device: Roche, Light Cycler480.
(§5) Daily fresh (10 ml): 1 ml 100 mM CacoK pH 7.2 and 0.3 ml 1 M NaCl filled up to 10 ml with Dnase/Rnase Free distilled water.
(§6) Dilute the RNA 1:10 (final 10 μM) in Assay Buffer.
(§7) Heat up the diluted RNA up to 90° C. for 5 min (sealed Eppendorf Tube).
(§8) Cool down the RNA probe slowly to RT.
(§9) Dilute the compounds to 800 μM in DMSO (Assay: 8 μM).
(§10) 78.4 μL Assay Buffer are pipetted into Greiner REF 781101, PS-Microplate, 384 (each well needed).
(§11) Add 0.8 μL of the RNA-Solution ([…]).
(§12) Add 0.8 μL Compound-Solution ([…]).
(§13) Final concentrations in the sample: 1 μM RNA, 8 μM compound, 1% DMSO
(§14) Pipet 20 μL Sample Solution into Roche, Light Cycler480 Multiwell Plate96, white, REF 04729692001.
(§15) When sample transfer is finished, seal the plate with a clear topseal (part of REF 04729692001).
(§16) Centrifuge the plate with a table-top device to spin down the samples.
(§17) Measure the 96 plate with the LightCycler480 (Channel: 480/510 nm; Temperature: 41-91° C.).
(§18) Analyse measurement-data with the MeltingCurveGenotyping Mode.
(§19) Settings: Acquisition mode: continuous; Ramp rate: 0.1 C.°/sec; Acquisition: 6/C.° Melt Curve Genotyping for All Samples
(§20) Melting curves analysis show melting temperature (Tm) of ˜51° C. Range of RNA concentrations was tested and assay window was determined (conc. range of 0.5-1 μM yields best results). The choice of buffer also affected the Tm. RNA constructs were tested under different buffer conditions (especially in presence of salt) in the thermal shift assay. […] CacoK with 30 mM salt at 1 μM RNA conc. was used to assess compound effects on 3WJ stability. […] These conditions were used for screening test compounds.
(§21) Compounds Ark0000013 and Ark0000014 were also tested in the thermal shift assay against three RNA 3WJ constructs, A) RNA3WJ_1.0.0_5IB_3FAM (cis 3WJ with one unpaired nucleotide); B) Split3WJ.1_up_5IB+Split3WJ.1_down_3FAM (trans 3WJ as 1:1 mix); and C) Split3WJ.2_up_5IB+Split3WJ.2_down_3FAM (trans 3WJ as 1:1 mix).

[2] = tested on: Split3WJ.2_up_5IB+Split3WJ.2_down_3FAM (trans 3WJ as 1:1 mix; Split3WJ_2); assay: Thermal shift binding assay; settings: Split3WJ_2 (trans 3WJ), 1 μM RNA, 8 μM compound
Excerpt: as §1, §2, §3, §4, §5, §6, §7, §8, §9, §10, §11, §12, §13, §14, §15, §16, §17, §18, §19, §20, §21

[3] = tested on: Split3WJ.1_up_5IB+Split3WJ.1_down_3FAM (trans 3WJ as 1:1 mix; Split3WJ_1); assay: Thermal shift binding assay; settings: Split3WJ_1 (trans 3WJ), 1 μM RNA, 8 μM compound
Excerpt: as §1, §2, §3, §4, §5, §6, §7, §8, §9, §10, §11, §12, §13, §14, §15, §16, §17, §18, §19, §20, §21

[4] = tested on: Split3WJ.1_up_5IB+Split3WJ.1_down_3FAM (trans 3WJ as 1:1 mix); assay: Fluorescence quenching binding assay; settings: trans 3WJ Split3WJ.1; two concentration points; FIG. 109
Description: This assay will be used to test binding of compounds for RNA three way junction (such as a 38 nt construct). This is a fluorescence quenching assay utilizing FAM as fluorescence tag and Iowa Black as quencher. Tags are attached at the 3′ and 5′ end, respectively. Stable formation of MW upon compound binding would lead to quenching of the FAM fluorescence due to close proximity of the Iowa Black tag. Assay readout: FAM (485-520 nm) Fluorescence Intensity.
as §2, §3
Sample plate: Greiner cat #784076, black, 384 (Dilution plate: Greiner REF 781101, PS-Microplate, 384 well, clear). Fluorescence Intensity device: Envision 1040285
Daily fresh (10 ml): 1 ml 100 mM CacoK pH 7.2 and 0.3 ml 1 M NaCl filled up to 10 ml with Dnase/Rnase Free distilled water […]
Calibration of the expected fluorescence signal at various RNA concentrations in either CacoK or NaPO4 buffers was performed first. Experiments in buffers containing salt show distinct fluorescence quenching behavior. […]
The fluorescence quenching experiment was repeated for compounds Ark0000013 and Ark0000014 to measure binding with: […]

Compound	Melting temp [° C.] + cmpd [1] [°C]	Temp. Shift [° C.] [1] [°C]	Effect in the melting curves (in words) ([1]; FIG. 111, listed as Ark000013)	Melting temp [° C.] + cmpd [2] [°C]	Temp. Shift [° C.] [2] [°C]	Temp. Shift [° C.] ([2]; listed as Ark000013) [°C]	Melting temp [° C.] + cmpd [3] [°C]	Temp. Shift [° C.] [3] [°C]	Temp. Shift [° C.] ([3]; listed as Ark000013) [°C]	Effect in fluorescence quenching assay [4]	Melting temp [° C.] + cmpd ([1]; listed as Ark000014) [°C]	Temp. Shift [° C.] ([1]; listed as Ark000014) [°C]	Melting temp [° C.] + cmpd ([2]; listed as Ark000014) [°C]	Temp. Shift [° C.] ([2]; listed as Ark000014) [°C]	Melting temp [° C.] + cmpd ([3]; listed as Ark000014) [°C]	Temp. Shift [° C.] ([3]; listed as Ark000014) [°C]
CN(CCCN)CCCNC(=O)c1ccc2c(c1)C1c3cc(C(=O)NCCCN(C)CCCN)ccc3C2c2ccc(C(=O)NCCCN(C)CCCN)cc21 [Ark0000013, N^2,N^7,N^15-tris(3-((3-aminopropyl)(methyl)amino)propyl)-9,10-dihydro-9,10-[1,2]benzenoanthracene-2,7,15-tricarboxamide]	87.0	21.4	significant effect	56.9	12.2	~13	58.2	20.4	~21	significant concentration dependent effect						
NCCCCCCCNC(=O)c1ccc2c(c1)C1c3cc(C(=O)NCCCCCCCN)ccc3C2c2ccc(C(=O)NCCCCCCCN)cc21 [Ark0000014, N^2,N^7,N^15-tris(7-aminoheptyl)-9,10-dihydro-9,10-[1,2]benzenoanthracene-2,7,15-tricarboxamide]	68.1	2.5		44.0	−0.3		37.8	0.3		smaller effect	68.4	~3	44.7	~1	38.8	~1
